Test results as given in PubChem BioAssay AID1963441 (Molecular Pharmacology Branch, DTP, NCI, 2024).

System: NCI-H1876 complex spheroid growth, % test/control
Experiment: Anticancer human tumor NCI-H1876 cell line growth inhibition [Asc];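 also: compound exposure lasted 7 days starting three days after seeding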;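 as to viability, T/C: 100% = DMSO vehicle control wells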
Settings: for IC50: curve of first compound; for viability, T/C: stronger effect = lower value; active = viability on the fitted dose curve at most 10% of control; inactive = the rest
Summary of the method: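 Tumor cells were grown as multicellular spheroids with stromal HUVEC and mesenchymal stem cells and treated singly or in combination. Concentrations fell in half-log steps from the clinical Cmax, or from 10 microM where none was known.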

[1] = second compound 0.0316 µM, first compound 0.0316 µM
[2] = second compound 0.0316 µM, first compound 0.1 µM
[3] = second compound 0.0316 µM, first compound 0.316 µM
[4] = second compound 0.0316 µM, first compound 1 µM
[5] = second compound 0.1 µM, first compound 0.0316 µM
[6] = second compound 0.1 µM, first compound 0.1 µM
[7] = second compound 0.1 µM, first compound 0.316 µM
[8] = second compound 0.1 µM, first compound 1 µM
[9] = second compound 0.316 µM, first compound 0.0316 µM
[10] = second compound 0.316 µM, first compound 0.1 µM
[11] = second compound 0.316 µM, first compound 0.316 µM
[12] = second compound 0.316 µM, first compound 1 µM
[13] = second compound 1 µM, first compound 0.0316 µM
[14] = second compound 1 µM, first compound 0.1 µM
[15] = second compound 1 µM, first compound 0.316 µM
[16] = second compound 1 µM, first compound 1 µM
[17] = second compound 3.16 µM, first compound 0.0316 µM
[18] = second compound 3.16 µM, first compound 0.1 µM
[19] = second compound 3.16 µM, first compound 0.316 µM
[20] = second compound 3.16 µM, first compound 1 µM
[21] = second compound 10 µM, first compound 0.0316 µM
[22] = second compound 10 µM, first compound 0.1 µM
[23] = second compound 10 µM, first compound 0.316 µM
[24] = second compound 10 µM, first compound 1 µM

C=C(F)C(=O)N1CCN(c2nc(OCC3CCCN3C)nc3c2CCN(c2cccc4cccc(Cl)c24)C3)CC1CC#N (stereo unspecified) + Cc1c(S(C)(=O)=O)c(-c2cc(F)cc(N3CCN(c4ccc(NS(=O)(=O)c5ccc(NC(CCN6CCC(C(=O)OCCCP(=O)(O)O)CC6)CSc6ccccc6)c(S(=O)(=O)C(F)(F)F)c5)cc4)CC3)c2)c(-c2ccc(Cl)cc2)n1C(C)C
5.54 µM: IC50 (second compound 1 µM)
inactive: viability, T/C [1] 96.7% | viability, T/C [2] 97.8% | viability, T/C [3] 102% | viability, T/C [4] 90.5% | viability, T/C (second compound 0.0316 µM, first compound 3.16 µM) 97.5% | viability, T/C [5] 83.6% | viability, T/C [6] 86.1% | viability, T/C [7] 91.9% | viability, T/C [8] 94% | viability, T/C (second compound 0.1 µM, first compound 3.16 µM) 98.1% | viability, T/C [9] 104% | viability, T/C [10] 94.9% | viability, T/C [11] 96.5% | viability, T/C [12] 98.8% | viability, T/C (second compound 0.316 µM, first compound 3.16 µM) 102% | viability, T/C [13] 91.5% | viability, T/C [14] 97.1% | viability, T/C [15] 94.1% | viability, T/C [16] 92% | viability, T/C (second compound 1 µM, first compound 3.16 µM) 99.3% | viability, T/C [17] 90.6% | viability, T/C [18] 93.6% | viability, T/C [19] 97.8% | viability, T/C [20] 88.5% | viability, T/C (second compound 3.16 µM, first compound 3.16 µM) 86.6% | viability, T/C [21] 95.7% | viability, T/C [22] 103% | viability, T/C [23] 81.9% | viability, T/C [24] 91.3% | viability, T/C (second compound 10 µM, first compound 3.16 µM) 95%
active: viability, T/C (second compound 0.0316 µM, first compound 10 µM) 5.25% | viability, T/C (second compound 0.1 µM, first compound 10 µM) 2.68% | viability, T/C (second compound 0.316 µM, first compound 10 µM) 1.38% | viability, T/C (second compound 1 µM, first compound 10 µM) 2.82% | viability, T/C (second compound 3.16 µM, first compound 10 µM) 0.42% | viability, T/C (second compound 10 µM, first compound 10 µM) 1.21%
5.65 µM: IC50 (second compound 0.316 µM)
5.38 µM: IC50 (second compound 0.1 µM)
5.7 µM: IC50 (second compound 0.0316 µM)
5.43 µM: IC50 (second compound 10 µM)
5.15 µM: IC50 (second compound 3.16 µM)

CCN1C(C(=O)NC23CCC(C(=O)O)(CC2)CC3)C(c2cccc(Cl)c2F)C2(C(=O)Nc3cc(Cl)ccc32)C12CCCCC2 (stereo unspecified) + Cc1c(S(C)(=O)=O)c(-c2cc(F)cc(N3CCN(c4ccc(NS(=O)(=O)c5ccc(NC(CCN6CCC(C(=O)OCCCP(=O)(O)O)CC6)CSc6ccccc6)c(S(=O)(=O)C(F)(F)F)c5)cc4)CC3)c2)c(-c2ccc(Cl)cc2)n1C(C)C
inactive: viability, T/C (second compound 0.0316 µM, first compound 0.00949 µM) 97.3% | viability, T/C (second compound 0.0316 µM, first compound 0.03 µM) 85.5% | viability, T/C (second compound 0.0316 µM, first compound 0.0949 µM) 98.5% | viability, T/C (second compound 0.0316 µM, first compound 0.3 µM) 107% | viability, T/C (second compound 0.0316 µM, first compound 0.949 µM) 125% | viability, T/C (second compound 0.0316 µM, first compound 3 µM) 106% | viability, T/C (second compound 0.1 µM, first compound 0.00949 µM) 95% | viability, T/C (second compound 0.1 µM, first compound 0.03 µM) 105% | viability, T/C (second compound 0.1 µM, first compound 0.0949 µM) 99.5% | viability, T/C (second compound 0.1 µM, first compound 0.3 µM) 105% | viability, T/C (second compound 0.1 µM, first compound 0.949 µM) 124% | viability, T/C (second compound 0.1 µM, first compound 3 µM) 98.2% | viability, T/C (second compound 0.316 µM, first compound 0.00949 µM) 99% | viability, T/C (second compound 0.316 µM, first compound 0.03 µM) 96.4% | viability, T/C (second compound 0.316 µM, first compound 0.0949 µM) 107% | viability, T/C (second compound 0.316 µM, first compound 0.3 µM) 96.1% | viability, T/C (second compound 0.316 µM, first compound 0.949 µM) 116% | viability, T/C (second compound 0.316 µM, first compound 3 µM) 81.2% | viability, T/C (second compound 1 µM, first compound 0.00949 µM) 95.2% | viability, T/C (second compound 1 µM, first compound 0.03 µM) 91.7% | viability, T/C (second compound 1 µM, first compound 0.0949 µM) 104% | viability, T/C (second compound 1 µM, first compound 0.3 µM) 108% | viability, T/C (second compound 1 µM, first compound 0.949 µM) 121% | viability, T/C (second compound 1 µM, first compound 3 µM) 60.4% | viability, T/C (second compound 3.16 µM, first compound 0.00949 µM) 104% | viability, T/C (second compound 3.16 µM, first compound 0.03 µM) 107% | viability, T/C (second compound 3.16 µM, first compound 0.0949 µM) 96.6% | viability, T/C (second compound 3.16 µM, first compound 0.3 µM) 107% | viability, T/C (second compound 3.16 µM, first compound 0.949 µM) 110% | viability, T/C (second compound 3.16 µM, first compound 3 µM) 50.7% | viability, T/C (second compound 10 µM, first compound 0.00949 µM) 103% | viability, T/C (second compound 10 µM, first compound 0.03 µM) 99.7% | viability, T/C (second compound 10 µM, first compound 0.0949 µM) 94% | viability, T/C (second compound 10 µM, first compound 0.3 µM) 107% | viability, T/C (second compound 10 µM, first compound 0.949 µM) 115% | viability, T/C (second compound 10 µM, first compound 3 µM) 45.3%
> 3 µM: IC50 (second compound 0.0316 µM) | IC50 (second compound 0.1 µM) | IC50 (second compound 0.316 µM) | IC50 (second compound 1 µM) | IC50 (second compound 3.16 µM)
2.74 µM: IC50 (second compound 10 µM)

CNC(C)C(=O)NC1CN(S(=O)(=O)c2cccc(S(=O)(=O)N3CCC4CCC(C(=O)NC(c5ccccc5)c5ccccc5)N4C(=O)C(NC(=O)C(C)NC)C3)c2)CCC2CCC(C(=O)NC(c3ccccc3)c3ccccc3)N2C1=O (stereo unspecified) + Cc1c(S(C)(=O)=O)c(-c2cc(F)cc(N3CCN(c4ccc(NS(=O)(=O)c5ccc(NC(CCN6CCC(C(=O)OCCCP(=O)(O)O)CC6)CSc6ccccc6)c(S(=O)(=O)C(F)(F)F)c5)cc4)CC3)c2)c(-c2ccc(Cl)cc2)n1C(C)C
inactive: viability, T/C (second compound 0.0316 µM, first compound 0.00316 µM) 95.1% | viability, T/C (second compound 0.0316 µM, first compound 0.01 µM) 96.4% | viability, T/C [1] 98% | viability, T/C [2] 97.8% | viability, T/C [3] 103% | viability, T/C [4] 103% | viability, T/C (second compound 0.1 µM, first compound 0.00316 µM) 91.3% | viability, T/C (second compound 0.1 µM, first compound 0.01 µM) 96.2% | viability, T/C [5] 95% | viability, T/C [6] 98.8% | viability, T/C [7] 105% | viability, T/C [8] 98.7% | viability, T/C (second compound 0.316 µM, first compound 0.00316 µM) 101% | viability, T/C (second compound 0.316 µM, first compound 0.01 µM) 102% | viability, T/C [9] 97.2% | viability, T/C [10] 97.3% | viability, T/C [11] 103% | viability, T/C [12] 104% | viability, T/C (second compound 1 µM, first compound 0.00316 µM) 94% | viability, T/C (second compound 1 µM, first compound 0.01 µM) 91.6% | viability, T/C [13] 91.6% | viability, T/C [14] 100% | viability, T/C [15] 112% | viability, T/C [16] 92.7% | viability, T/C (second compound 3.16 µM, first compound 0.00316 µM) 99.9% | viability, T/C (second compound 3.16 µM, first compound 0.01 µM) 87.2% | viability, T/C [17] 96.1% | viability, T/C [18] 88.1% | viability, T/C [19] 101% | viability, T/C [20] 91.8% | viability, T/C (second compound 10 µM, first compound 0.00316 µM) 97.4% | viability, T/C (second compound 10 µM, first compound 0.01 µM) 97.4% | viability, T/C [21] 88.3% | viability, T/C [22] 110% | viability, T/C [23] 102% | viability, T/C [24] 101%
> 1 µM: IC50 (second compound 0.0316 µM) | IC50 (second compound 0.1 µM) | IC50 (second compound 0.316 µM) | IC50 (second compound 1 µM) | IC50 (second compound 3.16 µM) | IC50 (second compound 10 µM)
